Assay results taken from patent US6979553B2, “Use of Nernstein voltage sensitive dyes in measuring transmembrane voltage” (Caliper Life Sciences, Inc., priority 1999, dated 2005).
Counter-ions that a name gives are not always drawn. Like-named read-outs stand apart in the source and are kept apart here.

Columns and labels:
THP-1 cells [1] = assay: Lab-on-a-chip membrane potential assay, uptake of DiBAC4(3) and Syto 62 by THP-1 cells; assay type: cell-based
Text: The microfluidic technology used in the LabChip® system for this example utilizes microchannels etched into quartz chips coupled with a sampling micropipette that can access samples from microtitre plates. The LabChip® system accesses liquid samples sequentially from a microplate, mixes the samples with cells flowing through a microchannel and reads out cellular responses using fluorescence detection. The system was applied to the measurement of changes in transmembrane potential. […].
As show in FIG. 8, panel A and panel B, the lab-on-a-chip system which was used consisted of quartz chip 801 containing microchannels 803 and 805 connected to Sipper™ capillary 807, robot 809 to move microplate 811, light source 813, optics 815 and fluorescence reader 817, vacuum pump 816, and a computer to control system functions and record data. Light from light source 813 (e.g., mercury arc lamp (470 nm) or an argon ion laser) was focused onto microchip 801 with through optics 815 comprising an objective (10×, 0.3 NA air). Fluorescence was collected with the objective, split into two channels (525 nm and 700 nm) and detected with fluorescence reader 817 which comprises photodiodes. Fluorescence readings were acquired at 20–90 Hz. The three axis robot 809 was used to position microplate 811 so that chip 801 could sample microplate 811, whether in a 96 or 384 well configuration.
A schematic of chip 801 with 90×20 μm channels is shown in FIG. 8, panel B. Flowing cells from cell well 819 were mixed with samples introduced through the Sipper™ capillary 807 (20 μm ID). The flow rate in the detection channel was varied from 2 to 10 nl/s by varying the vacuum applied to waste well 821. Agonists or dyes were added from side well 823. The incubation time in detection channel 803 was varied between 10 and 75 seconds by varying the applied pressure and the location of detector elements (e.g., optics 815) relative to chip 801.
As shown in panel A, the potential sensitive fluorescence signal was derived not from the slow re-equilibration of dyes that were pre-loaded into cells but rather from the rate of uptake of charged, membrane-permeable dyes. Using both an anionic dye, DiBAC4(3), and a cationic dye, Syto 62, yielded a ratiometric measurement with increased sensitivity. Cells were mixed on chip with test samples and dyes stored on the chip. After a short incubation in the detection channel, the fluorescence of individual cells was detected.
As shown in panel B, peaks in green (DiBAC) and red (Syto 62) fluorescence corresponded to THP-1 cells mixed with either buffer, UTP or quinidine sulfate flowing past the detector following a 75 second dye incubation.
As shown in panels C and D, the rate of uptake of DiBAC4(3) (C) and Syto 62 (D) was determined from the average fluorescence peak height as a function of the incubation time for resting cells (∘), cells hyperpolarized with UTP (▪) and cells depolarized with quinidine sulfate (Δ). Compared to resting cells, the rate of increase of DiBAC4(3) peak heights was 48±11% (mean±se, n=5) higher for depolarized cells and 43±5% lower for hyperpolarized cells. Similarly, the rate of increase of the Syto 62 peaks was 7±2% lower for depolarized cells and 37±3% higher for hyperpolarized cells.
As shown in panel A, a calibration curve relating the ratio of DiBAC4(3)/Syto 62 fluorescence (n=20 to 130 cells) to membrane potential was constructed by increasing the K+ conductance of the THP-1 cells and varying the extracellular K+ concentration. […]

THP-1 cells [2] = assay: Transmembrane potential assay on Caliper 3B5 microfluidic processor, THP-1 cells; assay type: cell-based; conditions: 50 μM UTP in high sodium buffer, resting approximately −40 mV
Description: Changes in the cell transmembrane potential were detected in microfluidic processor by the mixing of cells and the dyes DiBAC4(3) and SYTO62. […] Dye uptake by THP-1 cells was measured on a Caliper® 3B5 microfluidic processor (FIG. 5). One of the long channels of the processor contained THP-1 cells (3×10^6 cells/ml) suspended in high sodium buffer as above, while the other long channel contained 400 nM DiBAC4(3) and 10 μM SYTO62 in high sodium buffer. Transmembrane potential was set to resting potential, hyperpolarization or depolarization by placing either high sodium, 50 μM UTP in high sodium or high potassium buffer in the short arm. Resting, hyperpolarized and depolarized potentials are estimated to be approximately −40, −100 and 0 mV respectively. The microfluidic processor was maintained at room temperature (˜23° C.). DiBAC4(3) and SYTO62 fluorescence was read after the cells had traveled approximately 90 seconds from the junction (ΔP˜1″H2O). Panel A depicts the average fluorescence ratio (DiBAC4(3)/SYTO62) for runs of ˜80 cells each. Error bars are standard error values. As shown in panel B, Histograms show the expected voltage dependent changes in the fluorescence intensities of individual cells as a function of transmembrane potential.

[3] = system: peripheral blood T lymphocytes; assay type: cell-based, human; conditions: for change in DiBAC4(3)/Syto 62 ratio (depolarization): resting T lymphocytes
Text: Resting or mitogen activated peripheral blood T lymphocytes (90% CD3+) were flowed through the chip and mixed with ion channel modulators accessed through the Sipper™ capillary. Average DiBAC4(3)/Syto 62 ratios ±SE (n=2–6) are shown.
Thus, cell based assays of calcium flux and membrane potential were run in the lab-on-a-chip system. A novel approach for measurement of membrane potential was used to detect hyperpolarization and depolarization with high sensitivity. The microfluidic format reduced reagent, sample and cell consumption. As few as 50–200 cells and as little as 10 nl of sample were used per test. […]

Compound: O=c1ccn([C@@H]2O[C@H](COP(=O)(O)OP(=O)(O)OP(=O)(O)O)[C@@H](O)[C@H]2O)c(=O)[nH]1 [UTP]
- rate of increase of DiBAC4(3) peak heights, lower compared to resting cells (THP-1 cells [1]; hyperpolarized cells): 43±5%
- rate of increase of the Syto 62 peaks, higher compared to resting cells (THP-1 cells [1]; hyperpolarized cells): 37±3%
- transmembrane potential (hyperpolarized), estimated (THP-1 cells [2]): ~−100 mV

Compound: Clc1ccccc1C(c1ccccc1)(c1ccccc1)n1ccnc1 [clotrimazole]
- change in DiBAC4(3)/Syto 62 ratio ([3]; mitogen activated T lymphocytes in the presence of ionomycin, 30 μM, p<0.05): ratio increases significantly
- change in DiBAC4(3)/Syto 62 ratio (depolarization) ([3]; 30 μM): not

Compound: C[C@H](CCC(=O)O)C[C@H](C)C[C@H](C)C(=O)/C=C(\O)[C@H](C)C[C@H](C)C/C=C/[C@@H](C)[C@@H](O)[C@@H](C)[C@@H](O)C[C@@H]1CC[C@@](C)([C@H]2CC[C@@](C)([C@@H](C)O)O2)O1 [ionomycin]
- DiBAC4(3)/Syto 62 ratio (hyperpolarization) ([3]; mitogen activated T lymphocytes in the presence of ionomycin, compared to resting T lymphocytes, p<0.05): lower ratio compared to resting T lymphocytes
- change in DiBAC4(3)/Syto 62 ratio (depolarization) ([3]; 15 μM): not

Compound: C=C[C@H]1C[N@@]2CC[C@H]1C[C@@H]2[C@@H](O)c1ccnc2ccc(OC)cc12 [quinidine sulfate]
- change in the average DiBAC4(3)/Syto 62 ratio (THP-1 cells [1]; average±SD, n=3): dose dependent depolarization
- rate of increase of the Syto 62 peaks, lower compared to resting cells (THP-1 cells [1]; depolarized cells): 7±2%
- rate of increase of DiBAC4(3) peak heights, higher compared to resting cells (THP-1 cells [1]; depolarized cells, mean±se, n=5): 48±11%

Compound: margatoxin (TIINVKCTSPKQCLPPCKAQFGQSAGAKCMNGKCKCYPH; UniProt P40755 1-39, looked up)
- change in DiBAC4(3)/Syto 62 ratio (depolarization) ([3]; 36 μM, p<0.05): significant increase in DiBAC4(3)/Syto 62 ratio
